Columns and labels:
[1] = system: Chaetomium globosum; assay: Inhibition of hypha growth on malt extract agar, Chaetomium globosum; settings: read-out: Controlling effect (growth inhibition rate) CHG
[2] = system: Phytophthora infestants; assay: whole plant or invertebrate; format: in vivo; settings: 168 h; read-out: Controlling effect Pi (tomato late blight)
[3] = system: Tyromyces palustris; assay: Inhibition of hypha growth on malt extract agar, Tyromyces palustris; settings: read-out: Controlling effect (growth inhibition rate) TYP
Procedure: (§1) Each preparation to be tested was added to malt extract agar medium to adjust the concentration to 50 ppm, and the resulting mixture was dispensed into Petri dishes. As an inoculum, a prepared mycerial tuft of each test fungus was punched out together with agar by means of a 4-mm-diameter cork borer and inoculated on medium. The incubation temperature was adjusted to 28±2° .C (or 18±2° C. in the case of Selupula lacrymas).
(§2) The diameter of mycerial tuft was measured 2 to 10 days after the inoculation, and the inhibition rate of hypha growth (the following equation) was measured.

[4] = system: Rhizopus nigricans; assay: Inhibition of hypha growth on malt extract agar, Rhizopus nigricans; settings: Rhizopus stolonifer, read-out: Controlling effect (growth inhibition rate) RHS
Procedure: as §1, §2

[5] = system: Cladosporium cladosporioides; assay: Inhibition of hypha growth on malt extract agar, Cladosporium cladosporioides; settings: read-out: Controlling effect (growth inhibition rate) CLC
[6] = system: Serpula lacrymans; assay: Inhibition of hypha growth on malt extract agar, Serpula lacrymans; settings: read-out: Controlling effect (growth inhibition rate) SEL
[7] = system: Fusarium oxysporum; assay: Inhibition of hypha growth on malt extract agar, Fusarium oxysporum; settings: read-out: Controlling effect (growth inhibition rate) FUO
Procedure: as §1, §2
(§3) The controlling effect was evaluated according to the following criterion.

[8] = system: Botrytis cinerea; assay: Controlling effect (curing effect) on cucumber gray mold; format: in vivo; settings: 72 h, immersion of inoculated cotyledons, 15° C., read-out: Controlling effect Bc (cucumber gray mold)
Procedure: Controlling effect (curing effect) on cucumber gray mold The cotyledons of potted cucumber plants at the 1 leaf stage were cut off and each of them was inoculated with a mycelial tuft of gray mold fungus (Botrytis cinerea) cultured on PSA medium. After having been placed in a moist chamber at 15° C. for 24 hours, the cotyledons were immersed in a 200 ppm liquid chemical containing each compound of the present invention as active ingredient. […]

[9] = system: Aspergillus niger; assay: Inhibition of hypha growth on malt extract agar, Aspergillus niger; settings: read-out: Controlling effect (growth inhibition rate) ASN
Procedure: as §1, §2, §3

[10] = system: Pyricularia oryzae; assay: whole plant or invertebrate; format: in vivo; settings: 168 h, read-out: Controlling effect Ps (rice blast)
[11] = system: Trichoderma viride; assay: Inhibition of hypha growth on malt extract agar, Trichoderma viride; settings: read-out: Controlling effect (growth inhibition rate) TRV
Procedure: as §1, §2

[12] = system: Coriolus versicolor; assay: Inhibition of hypha growth on malt extract agar, Coriolus versicolor; format: cell-based; settings: Trametes versicolor, 28±2° C., 2 to 10 days, read-out: Controlling effect (growth inhibition rate) COV
[13] = system: Alternaria mali; assay: Inhibition of hypha growth on malt extract agar, Alternaria mali; settings: read-out: Controlling effect (growth inhibition rate) ALM
Procedure: as §1, §2, §3

[14] = system: Pseudoperonospora cubensis; assay: Controlling effect on cucumber Downy mildew; format: in vivo; settings: 168 h, 200 ppm spray, inoculation after 24 hours, read-out: Controlling effect Pc (cucumber downy mildew)

SMILES	inhibition at 50 ppm [1]	pest or weed control at 200 ppm [2]	inhibition at 50 ppm [3]	inhibition at 50 ppm [4]	inhibition at 50 ppm [5]	inhibition at 50 ppm [6]	inhibition at 50 ppm [7]	pest or weed control at 200 ppm [8]	inhibition at 50 ppm [9]	pest or weed control at 200 ppm [10]	inhibition at 50 ppm [11]	inhibition at 50 ppm [12]	inhibition at 50 ppm [13]	pest or weed control at 200 ppm [14]
CS(=O)(=O)c1snc(OC(F)F)c1C#N [Compound 24, 3-difluoromethoxy-4-cyano-5-methylsulfonylisothiazole]	55 to 84%	95 to 100%	100%	85 to 99%	100%	100%	85 to 99%	0 to 59%	100%	95 to 100%	100%	100%	100%	95 to 100%
COc1nsc(S(=O)(=O)c2ccccc2)c1C#N [Compound 89, 3-methoxy-4-cyano-5-phenylsulfonylisothiazole]	100%	95 to 100%	100%	100%	100%	100%	100%	60 to 79%	100%	95 to 100%	100%	100%	100%	80 to 94%
C=CCOc1nsc(S(C)(=O)=O)c1C#N [Compound 22]	55 to 84%	95 to 100%	100%	85 to 99%	100%	100%	85 to 99%	0 to 59%	85 to 99%	95 to 100%	85 to 99%	100%	85 to 99%	80 to 94%
N#Cc1c(O)nsc1S(=O)(=O)c1ccccc1 [Compound 1, 3-hydroxy-4-cyano-5-phenylsulfonylisothiazole]	85 to 99%	60 to 79%	55 to 84%	85 to 99%	55 to 84%	85 to 99%	55 to 84%	0 to 59%	55 to 84%	80 to 94%	85 to 99%	85 to 99%	55 to 84%	60 to 79%
C#CCOc1nsc(S(=O)(=O)CCOCC)c1C#N [Compound 82]	100%	95 to 100%	100%	100%	100%	100%	100%	60 to 79%	100%	95 to 100%	100%	100%	100%	95 to 100%
CC(C)Oc1nsc(S(C)(=O)=O)c1C#N [Compound 50]	100%	80 to 94%	100%	100%	100%	100%	100%	0 to 59%	100%	80 to 94%	100%	100%	100%	95 to 100%
COc1nsc(S(C)(=O)=O)c1C#N [Compound 20, 3-methoxy-4-cyano-5-methylsulfonylisothiazole]	100%	95 to 100%	100%	100%	100%	100%	100%	60 to 79%	100%	95 to 100%	100%	100%	100%	95 to 100%
